Results reported in ChEMBL document CHEMBL1201862, “PubChem BioAssay data set” (2004).
Where a name gives a salt, the structure may show the parent alone.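 Cultured in 96-well plates, cells were exposed to test compound for 48 hours across five concentrations. GI50 is the concentration that inhibits growth by half.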 Active and inactive are the calls of the source. Cut-off read from the data, not from the text of the source: active = GI50 up to about 1.1 µM and inactive = higher.

Tests used:
Assay in all cases: NCI anticancer screen, dose series, 48 h
HCT-116 = tested on: HCT-116
SNB-75 = tested on: SNB-75
OVCAR-4 = tested on: OVCAR-4
NCI-H226 = tested on: NCI-H226
786-0 = tested on: 786-0
NCI-H23 = tested on: NCI-H23
A498 = tested on: A498
UACC-62 = tested on: UACC-62
HCT-15 = tested on: HCT-15
HOP-92 = tested on: HOP-92
SR = tested on: SR
UACC-257 = tested on: UACC-257
SF-539 = tested on: SF-539
SK-MEL-2 = tested on: SK-MEL-2
IGROV-1 = tested on: IGROV-1
RXF 393 = tested on: RXF 393
Malme-3M = tested on: Malme-3M
T47D = tested on: T47D
MDA-N = tested on: MDA-N
SK-MEL-28 = tested on: SK-MEL-28
SK-MEL-5 = tested on: SK-MEL-5
MOLT-4 = tested on: MOLT-4
U-251 = tested on: U-251
EKVX = tested on: EKVX
MDA-MB-231 = tested on: MDA-MB-231
K562 = tested on: K562
SW-620 = tested on: SW-620
OVCAR-5 = tested on: OVCAR-5
NCI-H460 = tested on: NCI-H460
PC-3 = tested on: PC-3
OVCAR-3 = tested on: OVCAR-3
SF-295 = tested on: SF-295
SF-268 = tested on: SF-268
HT-29 = tested on: HT-29
A549 = tested on: A549
MDA-MB-435 = tested on: MDA-MB-435
LOX IMVI = tested on: LOX IMVI
HOP-62 = tested on: HOP-62
MCF7 = tested on: MCF7
HL-60 = tested on: HL-60
UO-31 = tested on: UO-31
CAKI-1 = tested on: CAKI-1
COLO 205 = tested on: COLO 205
NCI-H522 = tested on: NCI-H522
SN12C = tested on: SN12C
SK-OV-3 = tested on: SK-OV-3
ACHN = tested on: ACHN
HCC 2998 = tested on: HCC 2998
CCRF-CEM = tested on: CCRF-CEM
KM12 = tested on: KM12
DU-145 = tested on: DU-145
M14 = tested on: M14
SNB-19 = tested on: SNB-19
OVCAR-8 = tested on: OVCAR-8
NCI/ADR-RES = tested on: NCI/ADR-RES
TK-10 = tested on: TK-10
Hs-578T = tested on: Hs-578T
RPMI-8226 = tested on: RPMI-8226
BT-549 = tested on: BT-549

In the case of `c1ccc([C@H]2CN3CCSC3=N2)cc1` [LEVAMISOLE HYDROCHLORIDE], the GI50 (HCT-116) is reported as > 100 µM (inactive), the GI50 (SNB-75) is reported as > 100 µM (inactive) and the GI50 (OVCAR-4) is reported as > 100 µM (inactive). For the same molecule, the GI50 (NCI-H226) was > 100 µM (inactive), the GI50 (786-0) was > 100 µM (inactive) and the GI50 (NCI-H23) was > 100 µM (inactive). For the same molecule, the GI50 (A498) was > 100 µM (inactive), the GI50 (UACC-62) was > 100 µM (inactive) and the GI50 (HCT-15) was greater than 100 µM. For the same molecule, the GI50 (HOP-92) was > 100 µM (inactive), the GI50 (SR) was > 100 µM (inactive) and the GI50 (UACC-257) was > 100 µM (inactive). The GI50 (SF-539) was > 100 µM (inactive), the GI50 (SK-MEL-2) was > 100 µM (inactive) and the GI50 (IGROV-1) was > 100 µM (inactive). The GI50 (RXF 393) was > 100 µM (inactive), the GI50 (Malme-3M) was > 100 µM (inactive) and the GI50 (T47D) was > 100 µM (inactive). For the same molecule, the GI50 (MDA-N) was > 100 µM (inactive), the GI50 (SK-MEL-28) was > 100 µM (inactive) and the GI50 (SK-MEL-5) was > 100 µM (inactive). For the same molecule, the GI50 (MOLT-4) was > 100 µM (inactive), the GI50 (U-251) was > 100 µM (inactive) and the GI50 (EKVX) was > 100 µM (inactive). The GI50 (MDA-MB-231) was > 100 µM (inactive), the GI50 (K562) was > 100 µM (inactive) and the GI50 (SW-620) was > 100 µM (inactive). For the same molecule, the GI50 (OVCAR-5) was > 100 µM (inactive), the GI50 (NCI-H460) was > 100 µM (inactive) and the GI50 (PC-3) was > 100 µM (inactive). The GI50 (OVCAR-3) was > 100 µM (inactive), the GI50 (SF-295) was > 100 µM (inactive) and the GI50 (SF-268) was > 100 µM (inactive). The GI50 (HT-29) was > 100 µM (inactive), the GI50 (A549) was > 100 µM (inactive) and the GI50 (MDA-MB-435) was > 100 µM (inactive). The GI50 (LOX IMVI) was > 100 µM (inactive), the GI50 (HOP-62) was > 100 µM (inactive) and the GI50 (MCF7) was > 100 µM (inactive). The GI50 (HL-60) was > 100 µM (inactive), the GI50 (UO-31) was > 100 µM (inactive) and the GI50 (CAKI-1) was > 100 µM (inactive). The GI50 (COLO 205) was > 100 µM (inactive), the GI50 (NCI-H522) was > 100 µM (inactive) and the GI50 (SN12C) was > 100 µM (inactive). For the same molecule, the GI50 (SK-OV-3) was > 100 µM (inactive), the GI50 (ACHN) was > 100 µM (inactive) and the GI50 (HCC 2998) was > 100 µM (inactive). The GI50 (CCRF-CEM) was > 100 µM (inactive), the GI50 (KM12) was > 100 µM (inactive) and the GI50 (DU-145) was > 100 µM (inactive). The GI50 (M14) was > 100 µM (inactive), the GI50 (SNB-19) was > 100 µM (inactive) and the GI50 (OVCAR-8) was > 100 µM (inactive). For the same molecule, the GI50 (NCI/ADR-RES) was > 100 µM (inactive).
In the case of `CCOC(=O)NC(Nc1ccc(S(=O)(=O)Nc2ccc(OC)nn2)cc1)(C(F)(F)F)C(F)(F)F`, the GI50 (HCT-116) is reported as 22.6 µM (inactive), the GI50 (SNB-75) is reported as 26.8 µM (inactive) and the GI50 (OVCAR-4) is reported as 26.7 µM (inactive). The GI50 (NCI-H226) was 23 µM (inactive), the GI50 (786-0) was 20.9 µM (inactive) and the GI50 (NCI-H23) was 31.3 µM (inactive). For the same molecule, the GI50 (A498) was 26.3 µM (inactive), the GI50 (UACC-62) was 45 µM (inactive) and the GI50 (TK-10) was 27.7 µM (inactive). The GI50 (HCT-15) was 49.1 µM, the GI50 (HOP-92) was 28.5 µM (inactive) and the GI50 (SR) was 24.7 µM (inactive). The GI50 (UACC-257) was 33.1 µM (inactive), the GI50 (SF-539) was 20.6 µM (inactive) and the GI50 (IGROV-1) was 22.8 µM (inactive). For the same molecule, the GI50 (RXF 393) was 18.2 µM (inactive), the GI50 (Malme-3M) was 20.2 µM (inactive) and the GI50 (T47D) was > 100 µM (inactive). For the same molecule, the GI50 (MDA-N) was 42 µM (inactive), the GI50 (SK-MEL-28) was 24.9 µM (inactive) and the GI50 (SK-MEL-5) was 17.8 µM (inactive). The GI50 (MOLT-4) was 15.8 µM (inactive), the GI50 (U-251) was 17.9 µM (inactive) and the GI50 (EKVX) was 37 µM (inactive). The GI50 (MDA-MB-231) was 18.8 µM (inactive), the GI50 (Hs-578T) was 35.2 µM (inactive) and the GI50 (K562) was 32.2 µM (inactive). For the same molecule, the GI50 (SW-620) was 44.1 µM (inactive), the GI50 (OVCAR-5) was 32.2 µM (inactive) and the GI50 (NCI-H460) was 41.6 µM (inactive). For the same molecule, the GI50 (PC-3) was 21.3 µM (inactive), the GI50 (OVCAR-3) was 20.7 µM (inactive) and the GI50 (SF-295) was 37 µM (inactive). For the same molecule, the GI50 (SF-268) was 36.1 µM (inactive), the GI50 (HT-29) was 39.1 µM (inactive) and the GI50 (A549) was 35.3 µM (inactive). The GI50 (MDA-MB-435) was 14.5 µM (inactive), the GI50 (LOX IMVI) was 29.5 µM (inactive) and the GI50 (HOP-62) was 25.8 µM (inactive). The GI50 (MCF7) was 36.4 µM (inactive), the GI50 (HL-60) was 26.7 µM (inactive) and the GI50 (UO-31) was > 100 µM (inactive). For the same molecule, the GI50 (CAKI-1) was > 100 µM (inactive), the GI50 (COLO 205) was 21.9 µM (inactive) and the GI50 (SN12C) was 25.4 µM (inactive). For the same molecule, the GI50 (SK-OV-3) was 52 µM (inactive), the GI50 (ACHN) was 27 µM (inactive) and the GI50 (RPMI-8226) was 20.6 µM (inactive). For the same molecule, the GI50 (HCC 2998) was > 100 µM (inactive), the GI50 (CCRF-CEM) was 26.5 µM (inactive) and the GI50 (KM12) was 30.8 µM (inactive). For the same molecule, the GI50 (DU-145) was 43.5 µM (inactive), the GI50 (M14) was 18 µM (inactive) and the GI50 (SNB-19) was 43.2 µM (inactive). For the same molecule, the GI50 (OVCAR-8) was 38.2 µM (inactive) and the GI50 (NCI/ADR-RES) was 23.9 µM (inactive).
With `CC[C@@]1(O)C(=O)OCc2c1cc1n(c2=O)Cc2c-1nc1ccccc1c2/C=N/c1ccccc1N[C@@H]1c2cc3c(cc2[C@@H](c2cc(OC)c(O)c(OC)c2)[C@H]2C(=O)OC[C@@H]21)OCO3` the GI50 (HCT-116) was 0.0527 µM (active), the GI50 (SNB-75) was 0.028 µM (active) and the GI50 (OVCAR-4) was 0.427 µM (active). For the same molecule, the GI50 (NCI-H226) was 0.0362 µM (active), the GI50 (786-0) was 0.0142 µM (active) and the GI50 (UACC-62) was 0.014 µM (active). For the same molecule, the GI50 (HOP-92) was 0.209 µM (active), the GI50 (SR) was < 0.005 µM (active) and the GI50 (UACC-257) was 0.278 µM (active). For the same molecule, the GI50 (Malme-3M) was 0.329 µM (active), the GI50 (T47D) was 0.014 µM (active) and the GI50 (SK-MEL-5) was 0.0532 µM (active). For the same molecule, the GI50 (U-251) was 0.188 µM (active), the GI50 (MDA-MB-231) was 1.05 µM (active) and the GI50 (SW-620) was 0.157 µM (active). For the same molecule, the GI50 (PC-3) was 0.164 µM (active), the GI50 (SF-268) was 0.0161 µM (active) and the GI50 (A549) was 0.0351 µM (active). For the same molecule, the GI50 (LOX IMVI) was 0.0194 µM (active), the GI50 (HOP-62) was 0.0103 µM (active) and the GI50 (MCF7) was 0.00684 µM (active). The GI50 (CAKI-1) was 0.0204 µM (active), the GI50 (ACHN) was 0.0106 µM (active) and the GI50 (RPMI-8226) was 0.175 µM (active). The GI50 (HCC 2998) was 0.148 µM (active), the GI50 (BT-549) was 0.269 µM (active) and the GI50 (CCRF-CEM) was < 0.005 µM (active). The GI50 (DU-145) was 0.00767 µM (active) and the GI50 (M14) was 0.0239 µM (active).
